What was measured:
A2780/Taxol [1] = test: Inhibition of cell proliferation of human Paclitaxel-resistant A2780/T cells incubated for 48 hrs in presence of PTX by MTT assay; format: functional, cell-based
A2780/Taxol [2] = test: Inhibition of cell proliferation of human Paclitaxel-resistant A2780/T cells at 0.01 uM incubated for 48 hrs in presence of PTX by MTT assay relative to control; format: functional
A2780/Taxol [3] = test: Inhibition of cell proliferation of human Paclitaxel-resistant A2780/T cells at 0.1 uM incubated for 48 hrs in presence of PTX by MTT assay relative to control; format: functional
A2780/Taxol [4] = test: Inhibition of cell proliferation of human Paclitaxel-resistant A2780/T cells at 1 uM incubated for 48 hrs in presence of PTX by MTT assay relative to control; format: functional
A2780/Taxol [5] = test: Inhibition of cell proliferation of human Paclitaxel-resistant A2780/T cells at 10 uM incubated for 48 hrs in presence of PTX by MTT assay relative to control; format: functional
A2780/Taxol [6] = test: Reversal of paclitaxel resistance in human Paclitaxel-resistant A2780/T cells assessed as reversal fold by measuring ratio of paclitaxel IC50 to paclitaxel IC50 in presence of test compound at 1 uM incubated for 48 hrs by MTT assay; format: functional
[7] = Reversal of paclitaxel resistance in human A2780/CDDP cells assessed as reversal fold by measuring ratio of paclitaxel IC50 to paclitaxel IC50 in presence of test compound by MTT assay; format: functional
A2780/Taxol [8] = test: Reversal of paclitaxel resistance in human Paclitaxel-resistant A2780/T cells by MTT assay; format: functional, cell-based
[9] = Reversal of paclitaxel resistance in human CDDP-resistant A549 cells assessed as reversal fold by measuring ratio of paclitaxel IC50 to paclitaxel IC50 in presence of test compound by MTT assay; format: functional, CDDP-resistant A549 cell
[10] = target: ATP-dependent translocase ABCB1 (Homo sapiens, UniProt P08183); test: Binding affinity to CM5 sensor chip-immobilized human P-gp assessed as dissociation constant by SPR analysis
Chain of ATP-dependent translocase ABCB1 (P08183 whole entry): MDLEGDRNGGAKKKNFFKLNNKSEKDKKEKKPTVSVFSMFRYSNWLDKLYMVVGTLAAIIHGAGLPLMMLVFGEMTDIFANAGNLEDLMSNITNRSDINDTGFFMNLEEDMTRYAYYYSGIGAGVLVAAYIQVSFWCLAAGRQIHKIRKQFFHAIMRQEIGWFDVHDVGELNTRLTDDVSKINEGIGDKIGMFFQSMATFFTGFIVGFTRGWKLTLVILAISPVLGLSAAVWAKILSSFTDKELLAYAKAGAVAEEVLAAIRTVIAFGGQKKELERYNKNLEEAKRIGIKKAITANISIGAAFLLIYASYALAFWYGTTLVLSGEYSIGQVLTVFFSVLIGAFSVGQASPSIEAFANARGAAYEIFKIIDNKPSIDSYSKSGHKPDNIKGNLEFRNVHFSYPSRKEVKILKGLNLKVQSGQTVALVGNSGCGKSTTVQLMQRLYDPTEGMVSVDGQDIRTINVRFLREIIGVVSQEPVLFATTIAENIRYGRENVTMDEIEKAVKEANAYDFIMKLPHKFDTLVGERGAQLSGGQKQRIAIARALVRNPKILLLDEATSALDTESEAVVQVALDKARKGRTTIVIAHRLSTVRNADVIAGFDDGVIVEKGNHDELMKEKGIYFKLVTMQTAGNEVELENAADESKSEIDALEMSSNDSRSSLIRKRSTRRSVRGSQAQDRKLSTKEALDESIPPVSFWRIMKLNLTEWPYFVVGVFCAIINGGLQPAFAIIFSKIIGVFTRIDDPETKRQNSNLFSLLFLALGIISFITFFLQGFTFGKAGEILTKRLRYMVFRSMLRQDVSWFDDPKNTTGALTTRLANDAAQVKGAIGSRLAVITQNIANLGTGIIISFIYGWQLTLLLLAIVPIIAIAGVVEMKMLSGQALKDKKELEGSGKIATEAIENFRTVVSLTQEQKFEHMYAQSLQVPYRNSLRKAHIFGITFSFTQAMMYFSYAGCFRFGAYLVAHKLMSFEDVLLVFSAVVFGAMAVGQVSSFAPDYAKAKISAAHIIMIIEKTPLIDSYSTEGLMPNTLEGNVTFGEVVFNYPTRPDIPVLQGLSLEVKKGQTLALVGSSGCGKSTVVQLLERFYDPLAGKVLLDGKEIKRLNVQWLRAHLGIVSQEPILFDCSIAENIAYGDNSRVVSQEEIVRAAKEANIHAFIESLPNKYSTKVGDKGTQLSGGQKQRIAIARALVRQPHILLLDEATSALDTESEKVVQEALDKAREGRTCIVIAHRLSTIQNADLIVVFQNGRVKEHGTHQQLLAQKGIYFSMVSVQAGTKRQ

[11] = Inhibition of cell proliferation of human CDDP-resistant A549 cells by MTT assay; format: functional, cell-based
[12] = Inhibition of cell proliferation of human A2780/CDDP cells by MTT assay; format: functional, cell-based

Row | Compound | IC50 (A2780/Taxol [1]) [µM] | inhibition at 0.01 µM (A2780/Taxol [2]) [%] | inhibition at 0.1 µM (A2780/Taxol [3]) [%] | inhibition at 1 µM (A2780/Taxol [4]) [%] | inhibition at 10 µM (A2780/Taxol [5]) [%] | also measured
1 | O=C(Nc1ncc(-c2ccccc2)cc1F)c1cccnc1 | 0.32 | 11 | 50 |  |  | 
2 | O=C(Cc1cccnc1)Nc1ccc(-c2ccccc2)cn1 | > 50 |  |  | 39 | 34 | 
3 | CCCCc1ccc(-c2ccc(CNC(=O)c3cn(C)c4ccccc34)nc2)cc1 | > 50 |  |  | 37 | 52 | 
4 | O=C(Nc1nc(-c2ccccc2)co1)c1cccnc1 | 10.1 | 11 | 30 |  |  | 
5 | Cn1cc(C(=O)NCc2ccc(-c3cnc4ccccc4c3)cn2)c2ccccc21 | > 50 |  |  | 46 | 76 | Ratio IC50 (A2780/Taxol [6]): 9
6 | O=C(Nc1c(F)c(F)c(-c2ccccc2)c(F)c1F)c1cccnc1 | 0.8 | 25 | 46 |  |  | 
7 | O=C(NCc1ccc(-c2ccccc2)cn1)c1ccc2cccnc2c1 | 18.3 |  |  | 31 | 67 | 
8 | Cn1cc(C(=O)NCc2ccc(-c3cccc4ccccc34)cn2)c2ccccc21 | > 50 |  |  | 46 | 83 | Ratio IC50 (A2780/Taxol [6]): 138; Ratio IC50 [7]: 6; EC50 (A2780/Taxol [8]): 0.126 µM; Ratio IC50 [9]: 4
9 | N#Cc1cc(-c2ccccc2)cnc1NC(=O)c1cccnc1 | 0.08 | 35 | 59 |  |  | 
10 | O=C(NCc1ccc(-c2ccccc2)cn1)c1cccnc1 | 30.5 |  |  | 32 | 65 | 
11 | Cc1ccc(C(=O)NCc2ccc(-c3ccccc3)cn2)cn1 | > 50 |  |  | 12 | 35 | 
12 | COc1ccc(CCN(C)CCCC(C#N)(c2ccc(OC)c(OC)c2)C(C)C)cc1OC (stereo unspecified) |  | 22 | 47 | 57 | 76 | 
13 | O=C(/C=C/c1cccnc1)NCc1ccc(-c2ccccc2)cn1 | 22.1 |  |  | 33 | 38 | 
14 | O=S(=O)(Nc1ccc(-c2ccccc2)cn1)c1cccnc1 | 18.7 |  |  | 7 | 37 | 
15 | COc1ccc(-c2ccc(CNC(=O)c3cn(C)c4ccccc34)nc2)c(OC)c1 | > 50 |  |  | 36 | 80 | Ratio IC50 (A2780/Taxol [6]): 38
16 | O=C(NCc1ccc(-c2ccccc2)cn1)c1c(F)c(F)c(F)c(F)c1F | > 50 |  |  | 13 | 39 | 
17 | O=C(Nc1ccc(-c2ccccc2)cc1OC(F)(F)F)c1cccnc1 | 3.54 | 31 | 42 |  |  | 
18 | O=C(Nc1cccnc1)Nc1ccc(-c2ccccc2)cn1 | > 50 |  |  | 10 | 30 | 
19 | Cn1cc(C(=O)NCc2ccc(-c3cccs3)cn2)c2ccccc21 | > 50 |  |  | 6 | 80 | Ratio IC50 (A2780/Taxol [6]): 47

More lines, main results first:

Row | IC50 (A2780/Taxol [1]) [µM] | Compound | inhibition at 0.01 µM (A2780/Taxol [2]) [%] | inhibition at 0.1 µM (A2780/Taxol [3]) [%] | inhibition at 1 µM (A2780/Taxol [4]) [%] | inhibition at 10 µM (A2780/Taxol [5]) [%] | also measured
20 | > 50 | Cn1cccc1C(=O)NCc1ccc(-c2ccccc2)cn1 |  |  | 10 | 30 | 
21 | > 50 | Cn1cc(C(=O)NCc2ccc(-c3ccc(F)cc3)cn2)c2ccccc21 |  |  | 25 | 63 | 
22 | 3.09 | O=C(Nc1ccc(-c2ccccc2)c2nonc12)c1cccnc1 | 14 | 33 |  |  | 
23 | 11.2 | O=C(Nc1ccc(-c2ccccc2)c([N+](=O)[O-])c1)c1cccnc1 | 25 | 37 |  |  | 
24 | 33.2 | O=C(Nc1ccc(-c2ccccc2)c2cccnc12)c1cccnc1 | 6 | 39 |  |  | 
25 | > 50 | Cn1cc(C(=O)NCc2ccc(-c3ccc4c(c3)c3ccccc3n4-c3ccccc3)cn2)c2ccccc21 |  |  | 14 | 28 | 
26 | > 50 | COc1ccc(-c2ccc(CNC(=O)c3cn(C)c4ccccc34)nc2)cc1F |  |  | 40 | 71 | Ratio IC50 (A2780/Taxol [6]): 78
27 | 0.88 | O=C(Nc1ccc(-c2ccccc2)cn1)c1cccnc1 | 28 | 55 |  |  | 
28 | > 50 | Cn1cc(C(=O)NCc2ccc(-c3ccc(OCc4ccccc4)cc3)cn2)c2ccccc21 |  |  | 41 | 78 | Ratio IC50 (A2780/Taxol [6]): 54
29 | > 50 | Cn1cc(C(=O)NCc2ccc(-c3ccccc3)cn2)c2ccccc21 |  |  | 30 | 81 | Ratio IC50 (A2780/Taxol [6]): 18; Ratio IC50 [7]: 5; Kd [10]: 1.66 µM; Ratio IC50 [9]: 3
30 | 2.11 | O=C(Nc1ncc(-c2ccccc2)cc1O)c1cccnc1 | 11 | 38 |  |  | 
31 | 0.78 | O=C(Nc1ccc(-c2ccccc2)c(F)c1F)c1cccnc1 | 27 | 46 |  |  | 
32 | 20 | O=C(NCc1ccc(-c2ccccc2)cn1)c1ccc(F)c(F)c1 |  |  | 22 | 46 | 
33 | 12.6 | O=C(Nc1ccc(-c2ccccc2)cc1)c1cccnc1 | 29 | 37 |  |  | 
34 | > 50 | Cn1cc(C(=O)NCc2ccc(-c3ccco3)cn2)c2ccccc21 |  |  | 20 | 32 | 
35 | > 50 | O=C(Cc1cccnc1)NCc1ccc(-c2ccccc2)cn1 |  |  | 33 | 42 | 
36 | > 50 | O=C(NCc1ccc(-c2ccccc2)cn1)c1ccc(C(F)(F)F)nc1 |  |  | 9 | 31 | 
37 | > 50 | Cn1cc(C(=O)NCc2ccc(-c3cccc(F)c3)cn2)c2ccccc21 |  |  | 8 | 33 | 
38 | 13.6 | O=C(Nc1ccc(-c2ccccc2)nc1)c1cccnc1 | 9 | 33 |  |  | 
39 | 0.027 | O=C(Nc1ccc(-c2ccccc2)cc1[N+](=O)[O-])c1cccnc1 | 48 | 74 |  |  | 
40 | 19 | O=C(Nc1ccc(-c2ccccc2)c2ccccc12)c1cccnc1 | 31 | 35 |  |  | 
41 | > 50 | Cn1c(C(=O)NCc2ccc(-c3ccccc3)cn2)cc2ccccc21 |  |  | 11 | 37 | 
42 | 0.11 | O=C(Nc1ncc(-c2ccccc2)cn1)c1cccnc1 | 34 | 49 |  |  | 
43 | > 50 | O=C(NCc1ccc(-c2ccccc2)cn1)c1ccc(Br)nc1 |  |  | 12 | 37 | 
44 | 32.7 | O=C(NCc1ccc(-c2ccccc2)cn1)c1cncnc1 |  |  | 24 | 61 | 
45 | 14.1 | CC(=O)O[C@H]1C(=O)[C@@]2(C)[C@H]([C@H](OC(=O)c3ccccc3)[C@]3(O)C[C@H](OC(=O)[C@H](O)[C@@H](NC(=O)c4ccccc4)c4ccccc4)C(C)=C1C3(C)C)[C@]1(OC(C)=O)CO[C@@H]1C[C@@H]2O [PACLITAXEL] | 9 | 35 | 9 | 35 | IC50 [11]: 27.2 µM; IC50 [12]: 55.2 µM
46 | 22.9 | COc1cc(C(=O)NCc2ccc(-c3ccccc3)cn2)cc(OC)c1OC |  |  | 10 | 51 | 
